Reference: patent US12709608B2, “4-amino pyrimidine compounds for the treatment of cancer” (University of Rochester, priority 2021, dated 2026)
“Also recorded” adds a separate entry of the source. Where two headings read alike, the source gives them in different places.

Tests used:
[1] = Biodistribution in brainstem and serum of mice, HPLC analysis of tissue extracts; assay type: in vivo; settings: for concentration at 3 h: ip, 3 hours after intraperitoneal injection
Text: Study of JMJD3 demethylase inhibitors. […] Because of its promising anti-tumor activities, GSK-J4 has been used to treat many kinds of tumors in preclinical models including T-cell acute lymphoblastic leukemia, acute myeloid leukemia, diffuse large B-cell lymphoma, neuroblastoma, prostate cancer, gastric cancer, and DIPG. The major challenge of GSK-J4 in clinical development is that GSK-J4 is a prodrug and is rapidly converted to the active drug […] in vivo (FIG. 1). […] The development of novel compounds such as UR-8 offered desirable properties including good cellular and brain transport which is essential to improving in vivo efficacy.
UR-8 was administered by intraperitoneal injection to mice that were euthanized at 3 hours following UR-8 administration. Their brains were immediately resected, the brainstem was dissected from the surrounding brain, and the serum was collected by cardiac puncture. […] GSK-J1 was highly detected in either serum and brainstem in the mice treated with GSK-J4 in compared to that of the mice treated with UR-8. GSK-J4 was not detected in any specimens from mice treated with GSK-J4.

[2] = system: SF8628 intracranial (brainstem) tumor; assay: In vivo anti-tumor activity in patient-derived K27M DIPG xenografted mice; settings: for Survival, log-rank test P, control vs. compound: vs vehicle control (DMSO)
Procedure: Mice with SF8628 intracranial (brainstem) tumor were randomized to four treatment groups: vehicle control (DMSO, n=7), GSK-J4 (100 mg/kg/day for 10 consecutive days, n=8), UR-8 (100 mg/kg/day for 10 consecutive days, n=8), and UR-17 (100 mg/kg/day for 10 consecutive days, n=8). FIG. 3 (A) Upper: Growth plots for intracranial tumors using tumor bioluminescence values. Lower: Corresponding tumor bioluminescence intensity overlay images for representative vehicle-treated, GSK-J4, UR-17, and UR-8-treated mice. FIG. 3 (B) Corresponding survival plots for each experiment. Statistical analysis was performed using a log-rank test: control vs. GSK-J4, **P=0.0094; control vs. UR-8, ***P=0.0002; control vs. UR-17, ***P=0.0008; GSK-J4 vs. UR-8, ***P=0.0008; UR-8 vs. UR-17, *P=0.0197. FIG. 3 (c) Effects of UR-8 on cell proliferation.
UR-8 inhibited tumor growth and prolonged survival of mice bearing human DIPG xenografts—Based on the biological effects of UR-analogs in vitro, it was hypothesized that UR-analogs would suppress tumor growth and increase survival in mice with orthotopic (brainstem) human DIPG xenografts. To determine in vivo anti-tumor activity of UR-analogs, the mice were implanted with SF8628 DIPG cells in the brainstem and were treated with 100 mg/kg of GSK-J4, UR-8, and UR-17 for 10 consecutive days.

[3] = system: H3K27M DIPG cell lines (H3.3 K27M SF8628, H3.3 K27M DIPG-007, and H3.1 K27M SU-DIPGIV); assay: Inhibition of DIPG cell growth (cytotoxic activity), 72 hours treatment; assay type: cell-based; settings: Homo sapiens; three H3K27M mutant DIPG cell lines (SF8628, DIPG-007, SU-DIPGIV), treated for 72 hours
Procedure: Specifically, UR-8 and UR-17 induced dose dependent inhibition of the growth of K27M DIPG cells—To determine the potential of the UR-analog series, UR-8 and UR-17 were selected for initial studies on DIPG cell growth. Thus, three H3K27M DIPG cell lines (H3.3 K27M SF8628, H3.3 K27M DIPG-007, and H3.1 K27M SU-DIPGIV) were treated with GSK-J4 (R&D System), UR-8, and UR-17 for 72 hours.

[4] = SF8628 brainstem xenograft, 100 mg/kg for 10 consecutive days
[5] = SF8628 brainstem xenograft, 100 mg/kg/day for 10 consecutive days

| SMILES | GSK-J1 concentration, Brainstem ([1]; GSK-J4 treated mice, analyte GSK-J1, 3 hours after administration) | GSK-J1 concentration, Serum ([1]; GSK-J4 treated mice, analyte GSK-J1, 3 hours after administration, intraperitoneal) | Brain penetration ratio (GSK-J1) ([1]; brainstem concentration as % of serum concentration, analyte GSK-J1, GSK-J4 treated mice) | Species found in brainstem tissue after GSK-J4 treatment ([1]; mice euthanized at 3 hours after completion of GSK-J4 treatment) | GSK-J4 detection in specimens from mice treated with GSK-J4 ([1]; serum and brainstem, HPLC) | Survival benefit of treated mice [2, 4] | Tumor growth rate (bioluminescence monitoring) [2, 4] | Survival, log-rank test P, control vs. compound [2, 5] | IC50 [3] | Brain penetration ratio (UR-8) ([1]; brainstem concentration as % of serum concentration, analyte UR-8, UR-8 treated mice) | Kp at 3 h ([1]; mouse, brainstem relative to serum, intraperitoneal, brainstem concentration as % of serum concentration, analyte UR-8, UR-8 treated mice, read-out: Brain penetration ratio (UR-8)) | concentration at 3 h ([1]; mouse, brainstem, UR-8 treated mice, analyte UR-8, read-out: UR-8 concentration, Brainstem) | concentration at 3 h ([1]; mouse, serum, UR-8 treated mice, analyte UR-8, read-out: UR-8 concentration, Serum) | Survival, log-rank test P, GSK-J4 vs. UR-8 [2, 5] | Survival, log-rank test P, UR-8 vs. UR-17 [2, 5] | Therapeutic benefit compared with the other compounds ([2]; intracranial (brainstem) human DIPG xenografted mice, comparison with GSK-J4 / UR-17) |
| --- | --- | --- | --- | --- | --- | --- | --- | --- | --- | --- | --- | --- | --- | --- | --- | --- |
| CCOC(=O)CCNc1cc(N2CCc3ccccc3CC2)nc(-c2ccccn2)n1 [GSK-J4] | 141.5 ± 50.2 ng/mL | 31250 ± 18879 ng/mL | 0.61 ± 0.53% | only GSK-J1 | not detected | substantial survival benefit | reduced tumor growth rate | 0.0094 | – | – | – | – | – | – | – | – |
| OCCCNc1cc(N2CCc3ccccc3CC2)nc(-c2ccccn2)n1 [UR-8, 3-((2-(pyridin-2-yl)-6-(1,2,4,5-tetrahydro-3H-benzo[d]azepin-3-yl)pyrimidin-4-yl)amino)propan-1-ol] | – | – | – | – | – | significant benefit | – | 0.0002 | 4 to 6 µM | 8.77 ± 2.37% | 0.0877 ± 0.0237 | 410 ± 244 ng/mL | 4460 ± 1580 ng/mL | 0.0008 | 0.0197 | outperforming either GSK-J4 or UR-17; also recorded: greater anti-tumor activity and survival benefit than that obtained by GSK-J4 treatment |
